Reference: patent USRE31181E, “Means and method for improving natural defenses against caries” (priority 1980, dated 1983)
Where a SMILES comes first, the peptide text is derived from it.

Tested on: oral bacteria
Assay: pH of glucose solution incubated with oral bacteria (salivary sediment) and test substance
Assay type: cell-based
Details: for pH / pH rising to (pH rise after the drop) / pH drop to (lowest pH reached): glucose 2.8 mM; for pH: substance 3.3 mM final, 37° C.; for pH rising to (pH rise after the drop) / pH drop to (lowest pH reached): salivary sediment 16.7% (v/v), peptide 3.3 mM; for pH rising to (pH rise after the drop): measured through the fourth hour; for pH drop to (lowest pH reached): pH starts slightly above 7
Experimental: Experiments were performed in vitro using supernatant saliva. The saliva was obtained from random donors whose salivary secretions were paraffin block stimulated. The saliva donations were pooled before and after sediment removal.
Four sets of three 10×75 mm test tubes were provided with 0.2 ml of 8.4 mM (millimolar) of aqueous glucose solution. Set I was provided with 0.2 ml of pooled supernatant saliva. Set II was provided with 0.2 ml of 9.9 mM of the peptide glycine-glycine-arginine. Set III was provided with 0.2 ml of 9.9 mM arginine. Set IV was provided with 0.2 ml of distilled water. Sequentially 0.2 ml of a 50:50 aqueous suspension of oral bacteria was added to each test tube. The concentration of the peptide in the combined composition was 3.3 mM. The prepared test tubes were kept at 37° C. in a water bath. pH readings were taken at 0 time when the bacteria were added and at 15, 30, 45, 60, 90, 120, 180 and 240 minutes.
The tests were carried out under the same conditions as Sets I-IV. The salivary sediment was present in an amount of 16.7% (v/v), glucose 2.8 mM and the peptide 3.3 mM in the final composition.
Duplicate runs without peptide were run parallel to the others as a double check. […] Measurement continues through the fourth hour.

[1] = time 0 minutes (bacteria added)

Row | SMILES | pH [1] | pH (time 15 minutes) | pH (time 30 minutes) | pH (time 45 minutes) | pH (time 60 minutes) | pH (time 90 minutes) | pH (time 120 minutes) | pH (time 180 minutes) | pH (time 240 minutes) | pH rising to (pH rise after the drop) | pH drop to (lowest pH reached) | effectiveness as pH rise factor (synthesized peptide)
1 | N=C(N)NCCC[C@H](N)C(=O)O [Set III, arginine, reference compound] | 7.3 | 5.8 | 5.4 | 5.2 | 4.9 | 5.0 | 5.0 | 5.3 | 5.8 |  |  | 
2 | N=C(N)NCCC[C@H](N)C(=O)O.NCC(=O)O.NCC(=O)O [Gly--Gly--Arg, glycine-glycine-arginine] | 7.4 | 6.8 | 6.6 | 6.4 | 6.6 | 6.6 | 6.7 | 7.2 | 7.6 | 7.5 | 5.5 | 
3 | N=C(N)NCCC[C@H](NC(=O)[C@H](CCCCN)NC(=O)CNC(=O)CN)C(=O)O [Gly--Gly--Lys--Arg, H-glycine-glycine-lysine-arginine-OH] (H-GGKR-OH) |  |  |  |  |  |  |  |  |  | 8.4 | 6.4 | proven effective
